One block for each molecule: values may come before it.
Columns and labels:
[1] = Solubility of coumarinylmethyl-caged cyclic nucleotides in acetonitrile/HEPES buffer (saturation concentration by HPLC); type: physicochemical; details: acetonitrile/HEPES buffer (5:95), pH 7.2, room temperature
Description: Comparison of the Solubilities of Miscellaneous coumarinyl-methyl-caged Cyclic Nucleotides in Acetonitrile/HEPES Buffer (5:95) at pH 7.2 and Room Temperature
A suspension of the compounds in the specified solvent was treated for 5 min in an ultrasonic bath, undissolved components were removed by centrifugation, and the concentration in the solution was determined using HPLC. The following saturation concentrations were determined: […]

[2] = cited from earlier work
[3] = cited from earlier work; remark: listed apart in the source
[4] = tested on: olfactory cGMP-dependent cation channel; assay: Activation of the olfactory cGMP-dependent cation channel upon photolysis of caged cGMP; type: cell-based; details: for activation of the olfactory cGMP-dependent cation channel upon photolysis: HEPES buffer
Excerpt: The new photolabile cGMP and cAMP esters can be used successfully in the investigation of cyclic nucleotide-controlled processes.

[5] = tested on: cyclic nucleotide-dependent ion channel CNCα3 (from olfactory cells); assay: Whole cell measurements on HEK293 cells: activation of CNCα3 by photolytic liberation of cAMP; type: cell-based; details: axial form, 500 μM intracellular solution, UV flashes 10 to 200 ms; versus 200 μM DMN-caged cGMP on CNCα2, equal exposures
Excerpt: Activation of Cyclic Nucleotide-Dependent Ion Channels by Photolytic Liberation of Cyclic Nucleotides from the Corresponding Caged Compounds
Using whole cell measurements on HEK293 cells, the activation of the cyclic nucleotide-dependent ion channel CNCα3 (from olfactory cells) by photolytic liberation of cAMP from the axial form of the compound of Example 1 ([…]) and of the cyclic nucleotide-dependent ion channel CNCα2 (from rod photoreceptors) by photolytic liberation of cGMP from the axial form of 4,5-dimethoxy-2-nitrobenzyl ester of cGMP [DMN-caged cGMP, produced according to J. M. Nerbonne, S. Richard, J. Nargeot, H. A. Lester, Nature 310, 74 (1984)] was investigated comparatively by electrophysiological means.

saturation concentration [1]: 25 µM
Molecule: (7-Methoxycoumarin-4-yl)methyl-caged cGMP [(7-Methoxycoumarin-4-yl)methyl-caged cGMP (equatorial)]

saturation concentration [1]: 900 µM
Molecule: Nc1ncnc2c1ncn2C1OC2COP(=O)(OCc3cc(=O)oc4cc(OCC(=O)O)ccc34)OC2C1O (stereo not drawn) [[7-(Carboxymethoxy)coumarin-4-yl]methyl-caged cAMP (axial)]

Molecule: Nc1ncnc2c1ncn2C1OC2COP(=O)(OC(C(=O)c3ccccc3)c3ccccc3)OC2C1O (stereo not drawn) [desyl ester of cAMP]
sensitivity to solvolysis ([2]; aqueous buffer solutions): sensitive to solvolysis

saturation concentration [1]: > 100 µM
Molecule: Nc1nc2c(ncn2C2OC3COP(=O)(OCc4cc(=O)oc5cc(OCC(=O)O)c(OCC(=O)O)cc45)OC3C2O)c(=O)[nH]1 (stereo not drawn) [[6,7-Bis(carboxymethoxy)coumarin-4-yl]methyl-caged cGMP (equ]

Molecule: Nc1ncnc2c1ncn2C1OC2COP(=O)(OCc3ccc4ccccc4c3)OC2C1O (stereo not drawn) [(naphth-2-yl)methyl ester of cAMP]
solubility in aqueous buffer solutions [3]: insufficient solubility

Molecule: Nc1nc2c(ncn2C2OC3COP(=O)(OCc4cc(=O)oc5cc(OCC(=O)O)ccc45)OC3C2O)c(=O)[nH]1 (stereo not drawn) [Example 3]
activation of the olfactory cGMP-dependent cation channel upon photolysis [4]: complete activation

saturation concentration [1]: 40 µM
Molecule: (7-Methoxycoumarin-4-yl)methyl-caged 8-Br-cGMP [(7-Methoxycoumarin-4-yl)methyl-caged 8-Br-cGMP (axial)]

saturation concentration [1]: 15 µM
Molecule: (7-Methoxycoumarin-4-yl)methyl-caged cAMP

Molecule: COc1ccc2c(COP3(=O)OCC4OC(n5cnc6c(N)ncnc65)C(O)C4O3)cc(=O)oc2c1 (single isomer, unassigned) [equatorial isomer of the (7-methoxycoumarin-4-yl)methyl ester of cAMP, (7-methoxycoumarin-4-yl)methyl ester of cAMP]
hydrolytic halflife ([2]; Ringer's solution): 60 h

Molecule: Nc1nc2c(ncn2C2OC3COP(=O)(OCc4cc(=O)oc5cc(OCC(=O)O)c(OCC(=O)O)cc45)OC3C2O)c(=O)[nH]1 (stereo not drawn) [Compound 10, [6,7-bis(carboxymethoxy)coumarin-4-yl]methyl ester of cGMP]
amount of incident light for comparable activation of the channel ([4]; 333 nm, compared to the 4,5-dimethoxy-2-nitro-benzyl ester of cGMP): substantially smaller amounts of incident light

Molecule: Nc1ncnc2c1ncn2C1OC2COP(=O)(OCc3cc(=O)oc4cc(OCC(=O)O)c(OCC(=O)O)cc34)OC2C1O (stereo not drawn) [Example 1, [6,7-Bis(carboxymethoxy)coumarin-4-yl]methyl ester of cAMP]
concentration of liberated cyclic nucleotide [5]: substantially higher concentrations of liberated cyclic nucleotide

saturation concentration [1]: 20 µM
Molecule: (7-Methoxycoumarin-4-yl)methyl-caged 8-Br-cGMP [(7-Methoxycoumarin-4-yl)methyl-caged 8-Br-cGMP (equatorial)]

Molecule: COc1ccc2c(COP3(=O)OCC4OC(n5cnc6c(=O)[nH]c(N)nc65)C(O)C4O3)cc(=O)oc2c1 (stereo not drawn) [7-methoxycoumarinylmethyl-caged cGMP]
activation of the olfactory cGMP-dependent cation channel upon photolysis [4]: not more than partially

saturation concentration [1]: 15 µM
Molecule: (7-Methoxycoumarin-4-yl)methyl-caged cGMP [(7-Methoxycoumarin-4-yl)methyl-caged cGMP (axial)]

Molecule: Nc1ncnc2c1ncn2C1OC2COP(=O)(OCc3ccc4c(c3)C(=O)c3ccccc3C4=O)OC2C1O (stereo not drawn) [(anthraquinon-2-yl)methyl ester of cAMP]
solubility in aqueous buffer solutions [3]: insufficient solubility
